ChEMBL document CHEMBL4138123, “Design, synthesis and biological evaluation of novel pyrazolochalcones as potential modulators of PI3K/Akt/mTOR pathway and inducers of apoptosis in breast cancer cells” (Eur J Med Chem, 2017)

How the values were obtained:
Type in all cases: functional
NCI-H226 [1] = test: Cytotoxicity against human NCI-H226 cells assessed as cell growth at 1 uM after 48 hrs by sulforhodamine B assay relative to control; settings: NCI-H226, 48 h, read-out: Activity
HL-60(TB) [2] = test: Cytotoxicity against human HL-60(TB) cells assessed as cell growth at 1 uM after 48 hrs by sulforhodamine B assay relative to control; settings: HL-60, 48 h, read-out: Activity
BT-549 = test: Cytotoxicity against human BT549 cells assessed as cell growth at 1 uM after 48 hrs by sulforhodamine B assay relative to control; settings: BT-549, 48 h, read-out: Activity
SNB-19 = test: Cytotoxicity against human SNB19 cells assessed as growth inhibition after 48 hrs by sulforhodamine B assay; settings: SNB-19, 48 h
KM12 = test: Cytotoxicity against human KM12 cells assessed as cell growth at 10 uM after 48 hrs by sulforhodamine B assay relative to control; settings: KM12, 48 h, read-out: Activity
HCT-116 [3] = test: Cytotoxicity against human HCT116 cells assessed as cell growth at 0.01 uM after 48 hrs by sulforhodamine B assay relative to control; settings: HCT-116, 48 h, read-out: Activity
K562 = test: Cytotoxicity against human K562 cells assessed as cell growth at 1 uM after 48 hrs by sulforhodamine B assay relative to control; settings: K562, 48 h, read-out: Activity
NCI-H226 [4] = test: Cytotoxicity against human NCI-H226 cells assessed as cell growth at 0.1 uM after 48 hrs by sulforhodamine B assay relative to control; settings: NCI-H226, 48 h, read-out: Activity
A549 = test: Cytotoxicity against human A549/ATCC cells assessed as cell growth at 100 uM after 48 hrs by sulforhodamine B assay relative to control; settings: A549, 48 h, read-out: Activity
HL-60(TB) [5] = test: Cytotoxicity against human HL-60(TB) cells assessed as growth inhibition after 48 hrs by sulforhodamine B assay; settings: HL-60, 48 h
SW-620 [6] = test: Cytotoxicity against human SW620 cells assessed as cell growth at 0.01 uM after 48 hrs by sulforhodamine B assay relative to control; settings: SW-620, 48 h, read-out: Activity
PC-3 [7] = test: Cytotoxicity against human PC3 cells assessed as cell growth at 100 uM after 48 hrs by sulforhodamine B assay relative to control; settings: PC-3, 48 h, read-out: Activity
OVCAR-8 [8] = test: Cytotoxicity against human OVCAR8 cells assessed as cell growth at 0.1 uM after 48 hrs by sulforhodamine B assay relative to control; settings: OVCAR-8, 48 h, read-out: Activity
IGROV-1 = test: Cytotoxicity against human IGROV1 cells assessed as cell growth at 10 uM after 48 hrs by sulforhodamine B assay relative to control; settings: IGROV-1, 48 h, read-out: Activity
ACHN = test: Cytotoxicity against human ACHN cells assessed as cell growth at 0.1 uM after 48 hrs by sulforhodamine B assay relative to control; settings: read-out: Activity
COLO 205 = test: Cytotoxicity against human COLO205 cells assessed as cell growth at 100 uM after 48 hrs by sulforhodamine B assay relative to control; settings: COLO 205, 48 h, read-out: Activity
SF-539 = test: Cytotoxicity against human SF539 cells assessed as cell growth at 1 uM after 48 hrs by sulforhodamine B assay relative to control; settings: SF-539, 48 h, read-out: Activity
SW-620 [9] = test: Cytotoxicity against human SW620 cells assessed as cell growth at 0.1 uM after 48 hrs by sulforhodamine B assay relative to control; settings: SW-620, 48 h, read-out: Activity
MCF7 = test: Cytotoxicity against human MCF7 cells assessed as cell growth at 0.1 uM after 48 hrs by sulforhodamine B assay relative to control; settings: MCF7, 48 h, read-out: Activity
UACC-257 = test: Cytotoxicity against human UACC257 cells assessed as cell growth at 0.01 uM after 48 hrs by sulforhodamine B assay relative to control; settings: UACC-257, 48 h, read-out: Activity
NCI-H23 = test: Cytotoxicity against human NCI-H23 cells assessed as cell growth at 0.1 uM after 48 hrs by sulforhodamine B assay relative to control; settings: NCI-H23, 48 h, read-out: Activity
T47D = test: Cytotoxicity against human T47D cells assessed as cell growth at 10 uM after 48 hrs by sulforhodamine B assay relative to control; settings: read-out: Activity
PC-3 [10] = test: Cytotoxicity against human PC3 cells assessed as cell growth at 0.1 uM after 48 hrs by sulforhodamine B assay relative to control; settings: PC-3, 48 h, read-out: Activity
UO-31 [11] = test: Cytotoxicity against human UO31 cells assessed as cell growth at 10 uM after 48 hrs by sulforhodamine B assay relative to control; settings: UO-31, 48 h, read-out: Activity
SK-OV-3 = test: Cytotoxicity against human SKOV3 cells assessed as growth inhibition after 48 hrs by sulforhodamine B assay; settings: SK-OV-3, 48 h
NCI-H460 [12] = test: Cytotoxicity against human NCI-H460 cells assessed as cell growth at 0.1 uM after 48 hrs by sulforhodamine B assay relative to control; settings: NCI-H460, 48 h, read-out: Activity
A498 = test: Cytotoxicity against human A498 cells assessed as cell growth at 100 uM after 48 hrs by sulforhodamine B assay relative to control; settings: A498, 48 h, read-out: Activity
NCI-H522 = test: Cytotoxicity against human NCI-H522 cells assessed as cell growth at 0.1 uM after 48 hrs by sulforhodamine B assay relative to control; settings: NCI-H522, 48 h, read-out: Activity
OVCAR-8 [13] = test: Cytotoxicity against human OVCAR8 cells assessed as cell growth at 100 uM after 48 hrs by sulforhodamine B assay relative to control; settings: OVCAR-8, 48 h, read-out: Activity
NCI-H460 [14] = test: Cytotoxicity against human NCI-H460 cells assessed as cell growth at 1 uM after 48 hrs by sulforhodamine B assay relative to control; settings: NCI-H460, 48 h, read-out: Activity
SK-MEL-5 = test: Cytotoxicity against human SK-MEL-5 cells assessed as cell growth at 0.1 uM after 48 hrs by sulforhodamine B assay relative to control; settings: SK-MEL-5, 48 h, read-out: Activity
UO-31 [15] = test: Cytotoxicity against human UO31 cells assessed as growth inhibition after 48 hrs by sulforhodamine B assay; settings: UO-31, 48 h
HCT-116 [16] = test: Cytotoxicity against human HCT116 cells assessed as cell growth at 0.1 uM after 48 hrs by sulforhodamine B assay relative to control; settings: HCT-116, 48 h, read-out: Activity
HCC 2998 = test: Cytotoxicity against human HCC2998 cells assessed as growth inhibition after 48 hrs by sulforhodamine B assay; settings: HCC 2998, 48 h

COc1cc(-c2cc(/C=C/C(=O)c3ccc(Cl)c(Cl)c3)[nH]n2)cc(OC)c1OC
growth at 1 µM (NCI-H226 [1]): 96%
growth at 1 µM (HL-60(TB) [2]): 90%
growth at 1 µM (BT-549): 92%
TGI (SNB-19): > 100 µM
CC50 (SNB-19; read-out: LC50 (the source's name)): > 100 µM
growth at 10 µM (KM12): 19%
growth at 0.01 µM (HCT-116 [3]): 102%
growth at 1 µM (K562): 101%
growth at 0.1 µM (NCI-H226 [4]): 103%
growth at 100 µM (A549): 2%
LC50 (HL-60(TB) [5]): > 100 µM
TGI (HL-60(TB) [5]): 36.7 µM
growth at 0.01 µM (SW-620 [6]): 98%
growth at 100 µM (PC-3 [7]): 10%
growth at 0.1 µM (OVCAR-8 [8]): 97%
growth at 10 µM (IGROV-1): 75%
growth at 0.1 µM (ACHN): 105%
growth at 100 µM (COLO 205): -42%
growth at 1 µM (SF-539): 88%
growth at 0.1 µM (SW-620 [9]): 99%
growth at 0.1 µM (MCF7): 105%
growth at 0.01 µM (UACC-257): 96%
growth at 0.1 µM (NCI-H23): 92%
growth at 10 µM (T47D): 9%
growth at 0.1 µM (PC-3 [10]): 100%
growth at 10 µM (UO-31 [11]): 40%
LC50 (SK-OV-3): 62.5 µM
TGI (SK-OV-3): 18.8 µM
growth at 0.1 µM (NCI-H460 [12]): 105%
growth at 100 µM (A498): -25%
growth at 0.1 µM (NCI-H522): 89%
growth at 100 µM (OVCAR-8 [13]): -36%
growth at 1 µM (NCI-H460 [14]): 93%
growth at 0.1 µM (SK-MEL-5): 97%
LC50 (UO-31 [15]): > 100 µM
TGI (UO-31 [15]): > 100 µM
growth at 0.1 µM (HCT-116 [16]): 100%
LC50 (HCC 2998): > 100 µM
TGI (HCC 2998): 31.4 µM

COc1ccc(-c2cc(/C=C/C(=O)c3ccc4c(c3)OCO4)[nH]n2)cc1OC
GI50 (SNB-19): 1670 nM
GI50 (HL-60(TB) [5]): 2760 nM
GI50 (SK-OV-3): 3.13 µM
GI50 (UO-31 [15]): 1500 nM
GI50 (HCC 2998): 1740 nM
